Laboratory results published in patent US20230000936A1, “A[…] ITCHING […] C[…]” (Demetrix, Inc., priority 2021, published 2023).
Entries after “also recorded” stand apart in the source; their conditions may differ.

Assays:
Assay type in all cases: cell-based
CHRM2 [1] = molecular target: T1, CHRM2 (Homo sapiens, UniProt P08172); assay: GPCR reactivity screen, PathHunter β-Arrestin, agonist assay CHRM2; design: concentration or dose not given beside the values; settings: agonist mode; control acetylcholine
T1 sequence (P08172 1-466): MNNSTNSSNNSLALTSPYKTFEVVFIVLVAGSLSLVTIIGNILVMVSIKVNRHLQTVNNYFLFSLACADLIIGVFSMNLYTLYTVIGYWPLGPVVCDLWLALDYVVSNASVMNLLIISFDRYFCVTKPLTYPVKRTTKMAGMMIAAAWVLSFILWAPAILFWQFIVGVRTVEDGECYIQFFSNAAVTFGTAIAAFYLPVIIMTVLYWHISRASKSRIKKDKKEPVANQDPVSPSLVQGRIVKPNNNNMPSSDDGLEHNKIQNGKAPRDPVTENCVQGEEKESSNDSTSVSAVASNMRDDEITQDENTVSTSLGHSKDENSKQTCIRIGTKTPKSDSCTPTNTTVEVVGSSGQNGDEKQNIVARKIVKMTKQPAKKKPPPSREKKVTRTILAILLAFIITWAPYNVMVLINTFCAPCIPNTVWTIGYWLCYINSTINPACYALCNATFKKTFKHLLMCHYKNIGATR
Experimental: (§1) To evaluate the role specific cannabinoid compounds play in the neurological signaling pathway for itching, a GPCR reactivity assay was performed to determine the reactivity of 19 cannabinoid compounds to each of CHRM2, EDG3, and MRGPRX2. The evaluated cannabinoid compounds were: CBN, THCV, CBDVA, CBG, CBL, CBC, CBDV, CBDA, CBD, CBGA, (+)-CBD, CBG-C4, CBD-C1, CBD-C2, CBGV, CBGA-C4, CBGVA, CBCA, and CBLA. Acetylcholine was used as the control for CHRM2, sphingosine-1-phosphate was used as the control for EDG3; and cortistatin 14 was used as the control for MRGPRX2.
(§2) A total of six assays were run. Specifically, agonist and antagonist assays were run for each of CHRM2, EDG3, and MRGPRX2. In each of the three agonist assays, PathHunter® cell lines were removed from a freezer stock and seeded at a volume of 20 μL into white walled, 384-well microplates and incubated at 37° C. Each cell was incubated with a sample to induce a response and then diluted to generate a 5× sample in assay buffer. 5 μL of the 5× sample was then added to cells and incubated at 37° C. for 90 or 180 minutes. The final assay concentration was 1%. The assay signal was generated through addition of 12.5 μL or 15 μL (50% V/V) of a detection reagent cocktail followed by a one hour incubation time at room temperature. Microplates were read following signal generation with a PerkinElmer Envision™ (PerkinElmer Inc., Waltham, Mass.) for chemiluminescent signal detection. Reactivity was analyzed using the CBIS data analysis suite (ChemInnovation, CA) where RLU refers to the raw measured values. The percent activity was then calculated using the formula: % Activity=100%*(mean RLU of test sample−mean RLU of control)/(mean max control ligand−mean RLU of vehicle control).
(§3) As used herein, strong activity against a receptor is considered a percent activity of about 42% or higher. Higher results for antagonism against CHRM2, EDGE, and MRGPRX2 are considered better. It is further considered better when a cannabinoid inhibits more than one of the receptors.

CHRM2 [2] = molecular target: T1, CHRM2; assay: GPCR reactivity screen, PathHunter β-Arrestin, antagonist assay CHRM2; settings: for antagonist activity against CHRM2 (in words): GPCR reactivity screen; for CHRM2 (Antagonist) percent inhibition: antagonist mode, agonist challenge at EC80
Experimental: as §1
(§4) In each of the antagonist assays, PathHunter® cell lines were removed from a freezer stock and seeded at a volume of 20 μL into white walled, 384-well microplates and incubated at 37° C. Each cell was pre-incubated with an antagonist followed by an agonist challenge at the EC80 concentration. Cells were then diluted to generate a 5× sample in assay buffer. 5 μL of the 5× sample was then added to cells and incubated at 37° C. for 30 minutes. Finally, 5 μL of 6×EC80 agonist in assay buffer were added to the cells and incubated at 37° C. for 90 minutes or 180 minutes. The assay signal was generated through addition of 12.5 μL or 15 μL (50% V/V) of a detection reagent cocktail followed by a one hour incubation time at room temperature. Microplates were read following signal generation with a PerkinElmer Envision™ (PerkinElmer Inc., Waltham, Mass.) for chemiluminescent signal detection. Reactivity was analyzed using the CBIS data analysis suite (ChemInnovation, CA) where RLU refers to the raw measured values. The percent inhibition was calculated using the formula: % Inhibition=100%*(1−mean RLU of test sample−mean RLU of control)/(mean RLU of EC80 control−mean RLU of vehicle control).
as §3

EDG3 [3] = molecular target: T2, EDG3 (Homo sapiens, UniProt Q99500); assay: GPCR reactivity screen, PathHunter β-Arrestin, agonist assay EDG3; design: concentration or dose not given beside the values; settings: agonist mode; control sphingosine-1-phosphate
T2 sequence (Q99500 whole entry): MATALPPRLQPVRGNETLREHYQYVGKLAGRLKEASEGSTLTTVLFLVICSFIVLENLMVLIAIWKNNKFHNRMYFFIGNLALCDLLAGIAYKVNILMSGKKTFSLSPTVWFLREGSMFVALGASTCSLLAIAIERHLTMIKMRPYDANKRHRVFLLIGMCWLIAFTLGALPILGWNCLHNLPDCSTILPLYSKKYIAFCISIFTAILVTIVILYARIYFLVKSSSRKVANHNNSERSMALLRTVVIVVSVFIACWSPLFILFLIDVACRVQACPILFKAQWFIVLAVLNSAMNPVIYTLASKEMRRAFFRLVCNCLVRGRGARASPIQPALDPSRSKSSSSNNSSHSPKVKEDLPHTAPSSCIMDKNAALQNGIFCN
Experimental: as §1, §2, §3

EDG3 [4] = molecular target: T2, EDG3; assay: GPCR reactivity screen, PathHunter β-Arrestin, antagonist assay EDG3; settings: for antagonist activity against EDG3 (in words): GPCR reactivity screen; for EDG3 (Antagonist) percent inhibition: antagonist mode, agonist challenge at EC80
Experimental: as §1, §4, §3

MRGPRX2 [5] = molecular target: T3, MRGPRX2 (Homo sapiens, UniProt Q96LB1); assay: GPCR reactivity screen, PathHunter β-Arrestin, agonist assay MRGPRX2; settings: agonist mode; control cortistatin 14
T3 sequence (Q96LB1 1-330): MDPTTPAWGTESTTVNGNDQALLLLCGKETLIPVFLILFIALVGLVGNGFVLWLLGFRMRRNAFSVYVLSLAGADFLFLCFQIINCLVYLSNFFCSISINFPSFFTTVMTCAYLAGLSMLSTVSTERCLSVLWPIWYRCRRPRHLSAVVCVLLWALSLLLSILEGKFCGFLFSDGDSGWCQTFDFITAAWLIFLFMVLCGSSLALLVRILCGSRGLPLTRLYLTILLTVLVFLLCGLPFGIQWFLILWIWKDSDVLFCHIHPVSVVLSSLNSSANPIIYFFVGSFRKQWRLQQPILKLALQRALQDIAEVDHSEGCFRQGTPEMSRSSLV
Experimental: as §1, §2, §3

MRGPRX2 [6] = molecular target: T3, MRGPRX2; assay: GPCR reactivity screen, PathHunter β-Arrestin, antagonist assay MRGPRX2; settings: for antagonist activity against MRGPRX2 (in words): GPCR reactivity screen; for MRGPRX2 (Antagonist) percent inhibition: antagonist mode, agonist challenge at EC80
Experimental: as §1, §4, §3

MRGPRX2 [7] = molecular target: T3, MRGPRX2; assay: IC50 antagonist activity screen, PathHunter β-Arrestin, MRGPRX2; settings: for maximum inhibition (antagonism) MRGPRX2: maximum of IC50 curve; for antagonism of MRGPRX2 (in words): IC50 data
Experimental: as §4
as §3, with “IC50 curves were measured using the same GPCR assay, PathHunter® β-Arrestin from Eurofins DiscoverX Products (Fremont, Calif.), as the GPCR reactivity screen. As” for “As”, “maximum” for “percent”

CHRM2 [8] = molecular target: T1, CHRM2; assay: IC50 antagonist activity screen, PathHunter β-Arrestin, CHRM2; settings: for maximum inhibition (antagonism) CHRM2: maximum of IC50 curve
Experimental: as §4
as §3, with “IC50 curves were measured using the same GPCR assay, PathHunter® β-Arrestin from Eurofins DiscoverX Products (Fremont, Calif.), as the GPCR reactivity screen. As” for “As”, “maximum” for “percent”

EDG3 [9] = molecular target: T2, EDG3; assay: IC50 antagonist activity screen, PathHunter β-Arrestin, EDG3; settings: for maximum inhibition (antagonism) EDG3: maximum of IC50 curve
Experimental: as §4
as §3, with “IC50 curves were measured using the same GPCR assay, PathHunter® β-Arrestin from Eurofins DiscoverX Products (Fremont, Calif.), as the GPCR reactivity screen. As” for “As”, “maximum” for “percent”

SMILES | CHRM2 (Agonist) percent activity (CHRM2 [1]) [%] | antagonist activity against CHRM2 (in words) (CHRM2 [2]) | CHRM2 (Antagonist) percent inhibition (CHRM2 [2]) [%] | EDG3 (Agonist) percent activity (EDG3 [3]) [%] | antagonist activity against EDG3 (in words) (EDG3 [4]) | EDG3 (Antagonist) percent inhibition (EDG3 [4]) [%] | MRGPRX2 (Agonist) percent activity (MRGPRX2 [5]) [%] | antagonist activity against MRGPRX2 (in words) (MRGPRX2 [6]) | MRGPRX2 (Antagonist) percent inhibition (MRGPRX2 [6]) [%] | maximum inhibition (antagonism) MRGPRX2 (MRGPRX2 [7]) [%] | maximum inhibition (antagonism) CHRM2 (CHRM2 [8]) [%] | maximum inhibition (antagonism) EDG3 (EDG3 [9]) [%] | antagonism of CHRM2 (in words) (CHRM2 [8]; IC50 data) | antagonism of EDG3 (in words) (EDG3 [9]; IC50 data) | antagonism of MRGPRX2 (in words) (MRGPRX2 [7])
C=C(C)[C@@H]1CCC(C)=C[C@H]1c1c(O)cc(CC)cc1O [CBD-C2, cannabidol-C2] | 1 | do not exhibit an antagonistic effect; also recorded: did not exhibit antagonistic effects | 21 | 1 | do not exhibit an antagonistic effect; also recorded: did not exhibit antagonistic effects | 20 | 1 | do not exhibit an antagonistic effect; also recorded: did not exhibit antagonistic effects | 31 | 43 | – | – | – | – | –
C=C(C)[C@@H]1CCC(C)=C[C@H]1c1c(O)cc(CCCCCC)cc1O [CBD-C6, cannabidol hexyl] | – | – | – | – | – | – | – | – | – | 98 | 64 | 11 | – | – | –
C=C(C)[C@@H]1CCC(C)=C[C@H]1c1c(O)cc(CCCCCCC)cc1O [CBD-C7, cannabidol heptyl] | – | – | – | – | – | – | – | – | – | 98 | 90 | 20 | – | – | –
C=C(C)[C@@H]1CCC(C)=C[C@H]1c1c(O)cc(CCCCCCCCC)cc1O [CBD-C9, cannabidol nonyl] | – | – | – | – | – | – | – | – | – | 96 | 90 | 0 | remaining as an antagonist | did not act as an antagonist | remaining as an antagonist
C=C(C)[C@@H]1CCC(C)=C[C@H]1c1c(O)cc(CCC)cc1O [CBDV, cannabidivarin] | 3 | – | 34 | 1 | – | 24 | 3 | antagonist activity | 71 | 59 | 27 | – | – | – | –
CCCCc1cc(O)c(CC=C(C)CCC=C(C)C)c(O)c1 [CBG-C4, cannabigerol butyl] | 0 | – | 13 | 3 | – | 28 | 3 | antagonist activity | 94 | 85 | – | – | – | – | –
CCCCCCc1cc(O)c(C/C=C(\C)CCC=C(C)C)c(O)c1 [CBG-C6, cannabigerol hexyl] | – | – | – | – | – | – | – | – | – | 66 | 0 | 15 | – | – | –
CCCCCCCc1cc(O)c(C/C=C(\C)CCC=C(C)C)c(O)c1 [CBG-C7, cannabigerol heptyl] | – | – | – | – | – | – | – | – | – | 99 | 10 | 32 | – | – | –
CCCc1cc(O)c(C/C=C(\C)CCC=C(C)C)c(O)c1 [CBGV, cannabigerivarin] | 0 | – | 28 | 2 | – | 29 | 1 | antagonist activity | 95 | 76 | – | – | – | – | –
CCCCCc1cc(O)c2c(c1)OC1(C)CCC3C1C2C3(C)C (stereo not drawn) [CBL, cannabicyclol] | 13 | antagonist activity | 84 | −1 | – | 9 | 11 | antagonist activity | 82 | 81 | 47 | – | – | – | –
CCCCCc1cc2c(c(O)c1C(=O)O)C1C3C(CCC3(C)O2)C1(C)C (stereo not drawn) [CBLA, cannabicyclolic acid] | −4 | – | −19 | 3 | – | 19 | 2 | – | 36 | 44 | – | – | – | – | –
CCCCCc1cc(O)c2c(c1)OC(C)(C)c1ccc(C)cc1-2 [CBN, cannabinol] | 0 | – | 7 | 5 | – | 12 | 22 | antagonist activity | 73 | 78 | – | – | – | – | –
CCCc1cc(O)c2c(c1)OC(C)(C)[C@@H]1CCC(C)=C[C@@H]21 [THCV, tetrahydrocannabivarin] | 18 | do not exhibit an antagonistic effect | 42 | 1 | do not exhibit an antagonistic effect | 20 | 18 | do not exhibit an antagonistic effect; also recorded: antagonist activity; also recorded: demonstrated antagonism | 55 | 21 | 0 | – | – | – | inhibition was not observed
